According to publication PMC6356765, “Nepafenac-Loaded Cyclodextrin/Polymer Nanoaggregates: A New Approach to Eye Drop Formulation” (Materials, 2019):

Key:
[1] = test system: human cornea epithelial cell line; design: method as in PMID 9706061; details: cited from earlier work
[2] = design: method as in PMID 27513223, PMID 18500088, PMID 17189793, PMID 28493461; details: powdered form; cited from earlier work
[3] = Phase solubility studies of nepafenac with cyclodextrins; format: physicochemical; details: pure 2.5% HPβCD, aqueous (Figure 2)
Procedure: The solubility of nepafenac in combination with different cyclodextrin concentrations was determined following heating by sonication. Firstly, an excess amount of nepafenac (approximately 5 mg) was added to aqueous solutions containing known concentrations of CDs (ranging up to 15% (w/v) for αCD, γCD, HPαCD, HPβCD, HPγCD and 1.5% (w/v) for βCD) in pure water. The drug suspensions were saturated with nepafenac and heated in a sonicator in sealed vials at 60 °C for 60 min, before being allowed to cool to room temperature. Then, a small amount of solid nepafenac (approximately 2 mg) was added to each suspension to produce drug precipitation. Vials were resealed and placed in a shaker under constant agitation for 7 days. After reaching equilibrium, suspensions were filtered using 0.45 µm membrane filters, before being diluted in pure water and analysed by UHPLC. Determinations were made in triplicate. […]
The apparent stability constant (K1:1) according to the hypothesis of a 1:1 stoichiometric ratio of complexes was calculated using the following equation:(1) K1:1 = slope/S0(1−slope)
In addition, complexation efficiency (CE) was calculated. This factor can be calculated either from the slope of the phase solubility profile or from the ratio of the concentration of the drug/CD complex to free CD [52]:(2) CE=slope/(1−slope)=[Guess/CD complex]/[CD]

[4] = Chemical stability of nepafenac in 1% w/v γCD solution after heating by sonication; format: physicochemical; details: for Mean (± SD) Nepafenac Concentration: aqueous 1% w/v γCD, n = 3
Procedure: The chemical stability of nepafenac was determined in aqueous solution containing 1% w/v γCD following heating by sonication. The solution was shaken for 24 h until the drug was completely dissolved and then passed through a 0.45 µm membrane filter. The solution was then divided between four sealed vials. Vial 1 was used as a blank. Vials 2, 3 and 4 were heated in a sonicator at 60 °C for 20, 40 and 60 min, respectively. Drug concentrations were determined by HPLC.
The HPLC assay was performed using a reverse-phase ultra-high-performance liquid chromatography (UHPLC) Ultimate 3000 series system (Dionex Softron GmbH, Germering, Germany) consisting of a LPG-3400SD pump (Dionex, Germering, Germany) with a built-in degasser, WPS-3000 autosampler (Dionex, Germering, Germany), TCC-3100 column compartment (Dionex, Germering, Germany) and CoronaR ultra RS detector (Dionex, Germering, Germany). During the stationary phase, a Phenomenex Kinetex C18 column (150 × 4.6 mm, 5 µm) with matching HPLC Security Guard (Phenomenex, Cheshire, UK) was used. The mobile phase used a mixture of acetonitrile and water (50:50). The flow rate was 1 mL/min, the column oven temperature was ±25 °C and the detection wave length was set to 254 nm. The retention time for nepafenac under these conditions was 2.3 min.

SMILES	Cytotoxic profile (ranking among CDs) [1]	Biopharmaceutical Classification System class [2]	Solubility of nepafenac [3]	Degradation of nepafenac on heating by sonication ([4]; CD aqueous solutions, sonicator heating)	Mean (± SD) Nepafenac Concentration ([4]; sonication 60 °C 20 min)	Mean (± SD) Nepafenac Concentration ([4]; sonication 60 °C 40 min)	Mean (± SD) Nepafenac Concentration ([4]; sonication 60 °C 60 min)
OC[C@H]1O[C@@H]2O[C@H]3[C@H](O)[C@@H](O)[C@@H](O[C@H]4[C@H](O)[C@@H](O)[C@@H](O[C@H]5[C@H](O)[C@@H](O)[C@@H](O[C@H]6[C@H](O)[C@@H](O)[C@@H](O[C@H]7[C@H](O)[C@@H](O)[C@@H](O[C@H]8[C@H](O)[C@@H](O)[C@@H](O[C@H]9[C@H](O)[C@@H](O)[C@@H](O[C@H]1[C@H](O)[C@H]2O)O[C@@H]9CO)O[C@@H]8CO)O[C@@H]7CO)O[C@@H]6CO)O[C@@H]5CO)O[C@@H]4CO)O[C@@H]3CO [γCD, γ-cyclodextrin]	least cytotoxic profile	–	–	–	–	–	–
NC(=O)Cc1cccc(C(=O)c2ccccc2)c1N [Nepafenac, 2-amino-3-benzoylbenzeneacetamide]	–	class IV	0.85 mg/mL	no degradation	6.41 ± 0.08 µg/mL	6.49 ± 0.07 µg/mL	6.57 ± 0.08 µg/mL
